Assay results as given in patent publication US20220050096A1, “ANALYTE-SENSITIVE PROBES AND CONTACT LENS FOR DIAGNOSIS OF OCULAR PATHOLOGIES” (University Of Maryland, Baltimore, priority 2020, published 2022).
Several values for one entry are separate records, joined by “and”; a condition that tells them apart may be missing. Identical values can stand only once.

Assays:
[1] = Chloride-dependent intensity decay analysis of SPQ-C18 in Biofinity contact lenses, phosphate buffer pH 7.2; assay type: physicochemical
Protocol: (§1) Fluorescence Spectroscopic Measurements. Fluorescence intensities and intensity decays were measured using a Varian™ Eclipse 4 spectrofluorometer and a FluoTime300 instrument from PicoQuant™ (Berlin, Germany) and analyzed with the EasyTau™ software. The excitation source was a 473 nm laser diode with a repetition rate of 40 MHZ and a pulse width less than 100 ps. In other embodiments, the excitation source for SG-PL was at 495 nm from a Solea™ supercontinuum laser (PicoQuant™, Germany) and a 375 nm laser diode (PDL 375, PicoQuant™), a repetition rate of 40 MHz, and a pulse width less than 100 ps. Some intensity and lifetime measurements for SG-PL (as indicated) were performed using Alba V confocal fluorescence lifetime microscopy, FLIM (ISS, Urbana, Ill.), with excitation source of a 473 nm laser diode with a repetition rate of 40 MHz and a pulse width near 250 ps.
Intensity decays were measured at the emission maximum with the band of 10 to 20 nm, analyzed in terms of the multi-exponential model:
I(t)=Σαi exp(−t/ti) (equation 1)
where ti are the individual decay times and αi the initial time-zero amplitudes. The mean decay time can be represented in two ways. The average lifetime is given by:
where Σαi=1.0 and Σfi=1.0. The term fi=αi τi is proportional to the fractional contribution of each component to the total intensity decay. The term τi/Σαi τi is the fractional contribution to the steady state emission. Here, we use the amplitude-weighted lifetime given by
which is appropriate when the emission is from a single fluorophore with a changing quantum yield. For a single exponential decay, the lifetime is given by τ=1.0/(knr+Γ) and the quantum yield is given by Q=Γ/(knr+Γ) where knr is the sum of all non-radiative decay rates and Γ is the radiative decay rate. The value of Γ is determined by the molecular extinction coefficient that remains constant under most conditions. For a single type of fluorophore with a constant value of Γ the normalized αi values represent the molecular fraction of each decay time component. The value of αi and τi were determined by non-linear least squares fitting using PicoQuant™ software.
Quenching by Chloride. Collisional quenching occurs, for example, when SPQ-C18 (also referred to as OD-MQB (N-Octadecyl-6-methoxyquinolinium bromide)) has a diffusion collision with a chloride ion. The intensities (I) and lifetimes (6) are analyzed using the Stern-Volmer equation,
SPQ-C18 was synthesized using 6-methoxy quinolinium (SPQ) and 1-bromooctadecane (C18) as described in the art. Lenses were labeled by incubation with 3 ml of a 1 μM solution of SPQ-C18 in methanol-water. SPQ-C18 bound rapidly to the Biofinity™ lenses. […] Unless stated otherwise, all spectral measurements conducted for the present study were performed in 20 mM MOPS buffer, 8 mM KCl, pH 7.2, at room temperature.

[2] = Sodium binding affinity (mid-point) of SG in buffer; conditions: read-out: Na^+ binding constant / binding affinity (mid-point)
Protocol: as §1
(§2) Sodium Binding Affinity. The sodium affinity of the labeled lenses can be described in terms of the dissociation constant. The dissociation reaction for the probe complexed with Na+ can be written as
P—Na^+↔P+Na^+ (equation 4)
where P is the free probe with no bound sodium in the dissociation constant KD is given. The ratio of sodium free and sodium bound probe is given by
The binding affinity is given as the mid-point (MP) of the ion-dependent response where the spectral change is 50% complete. […]

[3] = Sodium binding affinity (mid-point of response) and sodium-dependent intensity of probes bound to contact lenses; conditions: lens not named; read-out: binding constant after addition of linker, hydrophobic moiety and/or binding to the lenses
Protocol: as §1, §2
P—Na^+↔P+Na^+ (equation 4) […]
Binding affinity curves of SG-PL with sodium in Biofinity™ and MyDay™ lenses were produced by plotting the normalized intensities with respect to the added sodium concentrations. The curves were measured by intensities at peak maximum (FIG. 38A) or amplitude-weighted lifetimes (FIG. 38B). […]

## CCCCCCCCCCCCCCCCCC[n+]1cccc2cc(OC)ccc21 [SPQ-C18, N-Octadecyl-6-methoxyquinolinium bromide]
[1]; NaCl 0 mM
  f1: 0.02
  f2: 0.10
  f3: 0.88
  α1: 0.36
  α2: 0.21
  α3: 0.44
  τ1: 0.69 ns
  τ2: 5.15 ns
  τ3: 20.74 ns
  τf: 18.66 ns
  τα: 10.35 ns
[1]; NaCl 20 mM
  f1: 0.03
  f2: 0.13
  f3: 0.84
  α1: 0.41
  α2: 0.21
  α3: 0.38
  τ1: 0.65 ns
  τ2: 4.98 ns
  τ3: 17.88 ns
  τf: 15.65 ns
  τα: 8.08 ns
[1]; NaCl 50 mM
  f1: 0.03
  f2: 0.22
  f3: 0.75
  α1: 0.38
  α2: 0.29
  α3: 0.33
  τ1: 0.73 ns
  τ2: 5.54 ns
  τ3: 16.81 ns
  τf: 13.76 ns
  τα: 7.38 ns
[1]; NaCl 90 mM
  f1: 0.05
  f2: 0.26
  f3: 0.68
  α1: 0.43
  α2: 0.31
  α3: 0.26
  τ1: 0.75 ns
  τ2: 5.33 ns
  τ3: 16.41 ns
  τf: 12.49 ns
  τα: 6.18 ns
[1]; NaCl 140 mM
  f1: 0.06
  f2: 0.31
  f3: 0.62
  α1: 0.44
  α2: 0.33
  α3: 0.22
  τ1: 0.82 ns
  τ2: 5.43 ns
  τ3: 16.26 ns
  τf: 11.91 ns
  τα: 5.81 ns
[1]; NaCl 200 mM
  f1: 0.08
  f2: 0.34
  f3: 0.58
  α1: 0.48
  α2: 0.34
  α3: 0.20
  τ1: 0.77 ns
  τ2: 4.92 ns
  τ3: 15.93 ns
  τf: 11.03 ns
  τα: 4.90 ns

## COc1cc(N2CCOCCOCCN(c3cc(OC)c(NC(=O)c4ccc(-c5c6cc(Cl)c(=O)cc-6oc6cc([O-])c(Cl)cc56)c(C(=O)[O-])c4)cc3OC)CCOCC2)c(OC)cc1NC(=O)c1ccc(-c2c3cc(Cl)c(=O)cc-3oc3cc([O-])c(Cl)cc23)c(C(=O)[O-])c1.C[N+](C)(C)C.C[N+](C)(C)C.C[N+](C)(C)C.C[N+](C)(C)C [SG]
[2]
  Kd: ~10 mM and ~6.5 mM
[3]
  Kd: ~100 mM
